Results: ChEMBL document CHEMBL1201862, “PubChem BioAssay data set” (2004)
Where “and” joins values, the source holds several entries; their conditions need not be identical. Identical values can stand only once.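 A five-concentration, 48-hour dose response in 96-well plates underlies each endpoint, interpolated linearly between surrounding concentrations. At the GI50, growth is halved.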 Calls of active or inactive are those of the source. Rule as the data show it: active = GI50 up to about 1.1 µM and inactive = higher.

Key:
Experiment in all cases: NCI tumour cell line growth inhibition, 48 h
786-0 = system: 786-0
A498 = system: A498
A549 = system: A549
ACHN = system: ACHN
CCRF-CEM = system: CCRF-CEM
COLO 205 = system: COLO 205
DU-145 = system: DU-145
EKVX = system: EKVX
HCT-116 = system: HCT-116
HCT-15 = system: HCT-15
HOP-62 = system: HOP-62
HOP-92 = system: HOP-92
HT-29 = system: HT-29
Hs-578T = system: Hs-578T
IGROV-1 = system: IGROV-1
K562 = system: K562
KM12 = system: KM12
LOX IMVI = system: LOX IMVI
M14 = system: M14
MCF7 = system: MCF7
MDA-MB-231 = system: MDA-MB-231
MDA-MB-435 = system: MDA-MB-435
MDA-N = system: MDA-N
MOLT-4 = system: MOLT-4
Malme-3M = system: Malme-3M
NCI-H226 = system: NCI-H226
NCI-H23 = system: NCI-H23
NCI-H522 = system: NCI-H522
NCI/ADR-RES = system: NCI/ADR-RES
OVCAR-3 = system: OVCAR-3
OVCAR-4 = system: OVCAR-4
OVCAR-5 = system: OVCAR-5
OVCAR-8 = system: OVCAR-8
PC-3 = system: PC-3
RPMI-8226 = system: RPMI-8226
SF-268 = system: SF-268
SF-295 = system: SF-295
SK-MEL-28 = system: SK-MEL-28
SK-MEL-2 = system: SK-MEL-2
SK-MEL-5 = system: SK-MEL-5
SK-OV-3 = system: SK-OV-3
SN12C = system: SN12C
SNB-19 = system: SNB-19
SNB-75 = system: SNB-75
SR = system: SR
SW-620 = system: SW-620
TK-10 = system: TK-10
U-251 = system: U-251
UACC-62 = system: UACC-62
UO-31 = system: UO-31
T47D = system: T47D
CAKI-1 = system: CAKI-1
HCC 2998 = system: HCC 2998
HL-60 = system: HL-60
NCI-H460 = system: NCI-H460
RXF 393 = system: RXF 393
SF-539 = system: SF-539
UACC-257 = system: UACC-257

## CSC1=N/C(=C\c2ccc(Cl)cc2)C(=O)N1CN1CCOCC1
786-0
  GI50: 33.4 µM (inactive)
A498
  GI50: 17.6 µM (inactive)
A549
  GI50: > 100 µM (inactive)
ACHN
  GI50: 31.3 µM (inactive)
CCRF-CEM
  GI50: 30.8 µM (inactive)
COLO 205
  GI50: 28.9 µM (inactive)
DU-145
  GI50: 63.8 µM (inactive)
EKVX
  GI50: 53.5 µM (inactive)
HCT-116
  GI50: 27.5 µM (inactive)
HCT-15
  GI50: 21.6 µM
HOP-62
  GI50: 23.4 µM (inactive)
HOP-92
  GI50: 0.308 µM (active)
HT-29
  GI50: 27.5 µM (inactive)
Hs-578T
  GI50: 33 µM (inactive)
IGROV-1
  GI50: 27.4 µM (inactive)
K562
  GI50: 33 µM (inactive)
KM12
  GI50: 85.7 µM (inactive)
LOX IMVI
  GI50: 26.4 µM (inactive)
M14
  GI50: 39 µM (inactive)
MCF7
  GI50: 5.75 µM (inactive)
MDA-MB-231
  GI50: 43 µM (inactive)
MDA-MB-435
  GI50: 58.3 µM (inactive)
MDA-N
  GI50: 47.8 µM (inactive)
MOLT-4
  GI50: 40 µM (inactive)
Malme-3M
  GI50: 52.2 µM (inactive)
NCI-H226
  GI50: 46.8 µM (inactive)
NCI-H23
  GI50: 66.8 µM (inactive)
NCI-H522
  GI50: 30.7 µM (inactive)
NCI/ADR-RES
  GI50: 40.6 µM (inactive)
OVCAR-3
  GI50: 41.7 µM (inactive)
OVCAR-4
  GI50: 21 µM (inactive)
OVCAR-5
  GI50: 87.9 µM (inactive)
OVCAR-8
  GI50: 21.7 µM (inactive)
PC-3
  GI50: 38.9 µM (inactive)
RPMI-8226
  GI50: 19.3 µM (inactive)
SF-268
  GI50: 18.2 µM (inactive)
SF-295
  GI50: > 100 µM (inactive)
SK-MEL-28
  GI50: > 100 µM (inactive)
SK-MEL-2
  GI50: 52.8 µM (inactive)
SK-MEL-5
  GI50: 32.6 µM (inactive)
SK-OV-3
  GI50: 30.6 µM (inactive)
SN12C
  GI50: 47.5 µM (inactive)
SNB-19
  GI50: 31.8 µM (inactive)
SNB-75
  GI50: 55.2 µM (inactive)
SR
  GI50: 0.0791 µM (active)
SW-620
  GI50: 36.7 µM (inactive)
TK-10
  GI50: 27.5 µM (inactive)
U-251
  GI50: 27 µM (inactive)
UACC-62
  GI50: 28.9 µM (inactive)
UO-31
  GI50: 23 µM (inactive)

## COc1ccc(C2c3c(-c4ccccc4)nn(-c4ccccc4)c3Oc3ncn4nc(CC#N)nc4c32)cc1OC (configuration not stated)
EKVX
  GI50: 7.89 µM (inactive)
HCT-15
  GI50: 14 µM and 20.3 µM
K562
  GI50: 22.6 µM (inactive) and > 23.7 µM (inactive)
MOLT-4
  GI50: > 100 µM (inactive)
SN12C
  GI50: 15 µM (inactive) and > 20.1 µM (inactive)
SR
  GI50: 5.57 µM (inactive)
T47D
  GI50: 10.1 µM (inactive)

## O=C1/C(=C/C=C/c2ccccc2)N=C(c2ccccc2)N1C1Nc2cc3c(cc2S1)NC(N1C(=O)/C(=C/C=C/c2ccccc2)N=C1c1ccccc1)S3 (configuration not stated)
786-0
  GI50: 45.9 µM (inactive)
A498
  GI50: 15.5 µM (inactive)
ACHN
  GI50: 41.8 µM (inactive)
CAKI-1
  GI50: 73.6 µM (inactive)
CCRF-CEM
  GI50: 43.9 µM (inactive)
DU-145
  GI50: 38.8 µM (inactive)
EKVX
  GI50: > 100 µM (inactive)
HCC 2998
  GI50: 11.4 µM (inactive)
HCT-116
  GI50: 28.1 µM (inactive)
HCT-15
  GI50: 40.9 µM
HL-60
  GI50: 29.1 µM (inactive)
HOP-62
  GI50: > 100 µM (inactive)
HOP-92
  GI50: 22.2 µM (inactive)
HT-29
  GI50: 23.3 µM (inactive)
Hs-578T
  GI50: 10.5 µM (inactive)
IGROV-1
  GI50: 48 µM (inactive)
K562
  GI50: 0.311 µM (active)
KM12
  GI50: 21.7 µM (inactive)
LOX IMVI
  GI50: 48.8 µM (inactive)
M14
  GI50: 26.4 µM (inactive)
MCF7
  GI50: 29.9 µM (inactive)
MDA-MB-231
  GI50: 31.6 µM (inactive)
MDA-MB-435
  GI50: 31.9 µM (inactive)
MOLT-4
  GI50: 0.0117 µM (active)
NCI-H226
  GI50: > 100 µM (inactive)
NCI-H23
  GI50: 66.5 µM (inactive)
NCI-H460
  GI50: 15.8 µM (inactive)
NCI-H522
  GI50: 10.3 µM (inactive)
NCI/ADR-RES
  GI50: 67.9 µM (inactive)
OVCAR-3
  GI50: 46.9 µM (inactive)
OVCAR-4
  GI50: 73.8 µM (inactive)
OVCAR-5
  GI50: > 100 µM (inactive)
OVCAR-8
  GI50: 44.4 µM (inactive)
PC-3
  GI50: 65.2 µM (inactive)
RPMI-8226
  GI50: 13.2 µM (inactive)
RXF 393
  GI50: 33.8 µM (inactive)
SF-268
  GI50: 9.68 µM (inactive)
SF-295
  GI50: 67.6 µM (inactive)
SF-539
  GI50: > 100 µM (inactive)
SK-MEL-28
  GI50: 38.2 µM (inactive)
SK-MEL-2
  GI50: > 100 µM (inactive)
SK-MEL-5
  GI50: 55 µM (inactive)
SK-OV-3
  GI50: > 100 µM (inactive)
SR
  GI50: < 0.01 µM (active)
SW-620
  GI50: 22.4 µM (inactive)
T47D
  GI50: 30.3 µM (inactive)
TK-10
  GI50: 86.7 µM (inactive)
U-251
  GI50: 42.4 µM (inactive)
UACC-257
  GI50: > 100 µM (inactive)
UO-31
  GI50: 28.1 µM (inactive)
